Laboratory results reported in US9447466B2 (NIPPON ZOKI PHARMACEUTICAL CO., LTD., priority 2010, dated 2016).
Values belong to the molecule of their own block, whether it stands above or below them.

Legend:
BDNF [1] = assay: Pharmacological Test 6: influence of intracellular signaling inhibitors on BDNF expression; assay type: cell-based, human; conditions: SH-SY5Y cells; test substance 10 mNU/mL 24 hours; PD98059 10 μM, LY 294002 15 μM or SB 203580 0.5 μM added 30 minutes before completion; FIG. 7
Protocol: PD98059 (MEK inhibitor, 10 μM), LY 294002 (PI-3K inhibitor, 15 μM) or SB 203580 (p38 MAPK inhibitor, 0.5 μM) dissolved in a medium was added to a cultured product 30 minutes before completion of the cultivation. After that, the same as in the above Pharmacological Test 1, the extracted total RNA was subjected to a semi-quantitative RT-PCT, the PCR product was separated by agarose gel electrophoresis and the bands of BDNF and cyclophilin were visually detected.

ERK1/2 = assay: Inhibition of phosphorylation of ERK1/2 by MEK1/2 inhibitor; assay type: cell-based
CREB [2] = assay: Inhibition of phosphorylation of CREB by p38MAPK inhibitor; assay type: cell-based
BDNF [3] = assay: Pharmacological Test 8: influence on TrkB inhibition (BDNF expression, semi-quantitative RT-PCR); assay type: cell-based, human; conditions: SH-SY5Y cells; test substance 10 mNU/mL 24 hours; K252a 500 nM or αTrkB 20 μg/mL added 30 minutes before completion; FIG. 9
Protocol: K252a (tyrosine kinase inhibitor, 500 nM) or rabbit IgG of human TrkB-specific antibody (αTrkB, 20 μg/mL) was added to the cultured product 30 minutes before completion of the cultivation. After that, the same as in the above Pharmacological Test 1, the extracted total RNA was subjected to a semi-quantitative RT-PCR, the PCR product was separated by agarose electrophoresis and the bands of BDNF and cyclophilin A were visually detected.

[4] = system: p42/44MAP kinase (ERK1/2); assay: Pharmacological Test 5: effect to CREB pathway (immuno-blotting), phosphorylated P42/44 MAP kinase; assay type: cell-based; conditions: SH-SY5Y cells; BDNF given from outside of the cells (human recombinant BDNF 50 pg/mL; 10 or 30 minutes)
Text: (§1) Intracellular signaling molecules were detected by an immuno-blotting method using each of various specific antibodies produced to CREB (MAB 5432; Millipore), phosphorylated CREB (P-CREB: Clone 10E9; Millipore), P42/44 MAP kinase (ERK1/2; Cell Signaling Technology), phosphorylated P42/44 MAP kinase (P-MAPK: Tyr202/Tyr204; Cell Signaling Technology) and c-Fos (Gene Tex). […] After that, the cells were scraped off using a cell scraper (BD Bioscience), immediately washed with ice-cooled PBS and subjected to cytolysis according to a method of Mutoh, et al. (Proceedings of the National Academy of Sciences of the United States of America, vol. 92, pages 5087 to 5091, 1995). The cytolyzed product was subjected to an SDS-PAGE electrophoresis of 4 to 20% gel (ePAGEL; Atto Chemicals) and blotted to a PDVF (polyvinylidene fluoride) membrane. After said membrane was subjected to a blocking for 1 hour using Tris buffer physiological saline (TBS; 20 mM Tris-HCl, pH 7.5, 0.15M NaCl) containing 3% fat-free milk and 0.1% Tween 20 (TBS-T), a reaction with the primary antibody and the HRP-labeled secondary antibody was conducted in TBS-T for one hour at room temperature. Immuno-reactive bands of CREB, phosphorylated CREB, P42/44 MAP kinase, phosphorylated P42/44 MAP kinase and c-Fos were visually detected by a detection system by means of […] (ECL; GE Healthcare).

CREB [5] = assay: Pharmacological Test 5: effect to CREB pathway (immuno-blotting), phosphorylated CREB; assay type: cell-based; conditions: SH-SY5Y cells; BDNF given from outside of the cells (human recombinant BDNF 50 pg/mL; 10 or 30 minutes)
Text: as §1

Molecule: COc1cccc(-c2cc(=O)c3ccccc3o2)c1N [PD98059]
- enhancement of BDNF expression by the test substance in presence of inhibitor (BDNF [1]): suppressed
- phosphorylation of ERK1/2 (ERK1/2): inhibited

Molecule: C[S+]([O-])c1ccc(-c2nc(-c3ccncc3)c(-c3ccc(F)cc3)[nH]2)cc1 (stereo not shown) [SB203580]
- enhancement of BDNF expression by the test substance in presence of inhibitor (BDNF [1]): suppressed
- phosphorylation of CREB (CREB [2]): inhibited

Molecule: COC(=O)[C@@]1(O)C[C@H]2O[C@]1(C)n1c3ccccc3c3c4c(c5c6ccccc6n2c5c31)C(=O)NC4 [Example K252a]
- BDNF expression enhanced by the test substance in presence of inhibitor or antibody (BDNF [3]): almost completely suppressed

- phosphorylation of 42/44MAP kinase [4]: enhanced
B1: BDNF: human recombinant BDNF (Peprotech) given from outside of the cells (protein, UniProt P23560 19-247, looked up)
Neurotrophic factor BDNF …: APMKEANIRGQGGLAYPGVRTHGTLESVNGPKAGSRGLTSLADTFEHVIEELLDEDQKVRPNEENNKDADLYTSRVMLSSQVPLEPPLLFLLEEYKNYLDAANMSMRVRRHSDPARRGELSVCDSISEWVTAADKKTAVDMSGGTVTVLEKVPVSKGQLKQYFYETKCNPMGYTKEGCRGIDKRHWNSQCRTTQSYVRALTMDSKKRIGWRFIRIDTSCVCTLTIKRGR
- phosphorylation of CREB (CREB [5]): enhanced
